# Like-named read-outs stand apart in the source and are kept apart here. Where a SMILES comes first, the peptide text is derived from it. [ ]: non-standard residue; d: D form. The star is where a group is joined. ξ: configuration not given here. Ala(6-(2-MePh)pyridin-3-yl) = Cc1ccccc1-c1ccc(C[C@H](N)C(=O)O)cn1; Phe(4-(2-Et-4-HO-Ph)) = CCc1cc(O)ccc1-c1ccc(C[C@H](N)C(=O)O)cc1; Bip(2'-Et-4'-OMe) = CCc1cc(OC)ccc1-c1ccc(C[C@H](N)C(=O)O)cc1; Lactoyl(3-(imidazol-4-yl)) = O=C([C@@H](O)Cc1c[nH]cn1)*; Bip(2'-Me) = Cc1ccccc1-c1ccc(C[C@H](N)C(=O)O)cc1; d(αMePhe(2-F)) = C[C@@](N)(Cc1ccccc1F)C(=O)O; αMePhe(2-F) = C[C@](N)(Cc1ccccc1F)C(=O)O; ξαMePhe(2-F) = CC(N)(Cc1ccccc1F)C(=O)O; Thr(3ξ) = CC(O)[C@H](N)C(=O)O; ξαMeP = CC1(C(=O)O)CCCN1; Aib = CC(C)(N)C(=O)O; Moc = COC(=O)*
# Assays:
# [1] = Exposure during ipGTT in ob/ob mice; assay type: in vivo, mouse; settings: sc
# C57BL/6J-ob/ob mice = test: Intraperitoneal glucose tolerance test (ipGTT) in ob/ob mice after subcutaneous injection; assay type: in vivo, mouse; settings: for Potency in ob/ob mice ED50: sc injection, plasma glucose AUC in ipGTT; for effect on postprandial plasma glucose: sc in ob/ob mice, between 0 and 180 or 210 minutes
# Protocol: Peptides were dissolved in an appropriate vehicle at a concentration in nmol/ml equivalent to the dose that was to be administered in nmol/kg so that each mouse would receive the same volume/weight of dosing solution. Male C57BL/6J-ob/ob mice (10 weeks old) were randomized into groups of 6 mice per group based on fed plasma glucose and body weight. After an overnight fast, mice were weighed and placed in the experimental lab. After 30 min in the environment, the mice were bled via tail tip at −30 min and immediately injected subcutaneously (sc) with vehicle or the peptide dissolved in vehicle (0.1 ml solution/100 g body weight). At time 0 the mice were bled and then injected intraperitoneally with 50% glucose (2 g/kg) to initiate the intraperitoneal glucose tolerance test (ipGTT). The mice were bled 30, 60, 120 and 180 min after the glucose injection. Blood samples were drawn into potassium EDTA, placed on ice during the study and subsequently centrifuged for 10 min at 3000 rpm at 4° C. Plasma samples were diluted 1-fold for glucose analysis in the Cobas System. Another 5 μl plasma sample was diluted 5-fold with 20 μl of Sample Diluent (Insulin ELISA assay kit, Crystal Chem Inc.) and stored at −20° C. for subsequent analysis using the Ultra Sensitive Mouse Insulin ELISA kit (Crystal Chem Inc.).
# [2] = Dog pharmacokinetic study (intravenous and subcutaneous, 67 μg/kg); assay type: in vivo; settings: for half-life: read-out: t½ (converted)
# Protocol: The pharmacokinetic parameters of the compound of SEQ ID NO:9 were determined in male beagle dogs (n=4, 14±1 kg). Following an overnight fast, each animal received the compound of SEQ ID NO:9 either as an intravenous bolus via femoral vein (67 μg/kg) or by subcutaneous injection given at near the shoulder blades (67 μg/kg). Each animal received both intravenous and subcutaneous doses with a one-week washout between doses following a crossover design. […] Serial blood samples were collected in EDTA-containing microcentrifuge tubes at predose, 0.083, 0.25, 0.5, 0.75, 1, 2, 4, 6, 8, 24, and 30 hours post-dose after intravenous administration; at predose, 0.25, 0.5, 0.75, 1, 2, 4, 6, 8, 24, and 30 hours post-dose after subcutaneous administration. Approximately 0.3 mL of blood was collected at each time point. Blood samples were immediately centrifuged at 4° C. The obtained plasma was frozen with dry ice and stored at −20° C. Plasma drug levels were determined using the LC-MS/MS assay described above.
# Plasma samples from in vivo dog study were prepared for analysis by precipitating plasma proteins with two volumes of acetonitrile containing an internal standard. The samples were vortex mixed and removed the precipitated proteins by centrifugation. The resulting supernatants were transferred to a 96-well plate and 10 μL were injected for analysis. Samples were prepared with the Packard Multiprobe II and Quadra 96 Liquid Handling System.
# The HPLC system consisted of two Shimadzu LC10AD pumps (Columbia, Md.), a CTC PAL autosampler (Leap Technologies, Switzerland). The column used was a YMC Hydrosphere C18 (2.0×50 mm, 3 μm) (YMC, Inc., Milford, Mass.). The column temperature was maintained at 50° C. and the flow rate was 0.3 mL/minute. The mobile phase A consisted of 10 mM ammonium formate and 0.1% formic acid in water and mobile phase B consisted of 0.1% formic acid in acetonitrile. The initial mobile phase composition was 5% B, and remained at 5% B for one minute to equilibrate the column. The composition was ramped to 95% B over two minutes and held there for one additional minute. The mobile phase was then returned to initial conditions in one minute. Total analysis time was five minutes. A switching valve was used. The eluents between 0-1 minute were diverted to the waste.
# The HPLC was interfaced to a Sciex API 4000 mass spectrometer, (Applied Biosystems, Foster City, Calif.) and was equipped with a TurboIonspray ionization source. Ultra high purity nitrogen was used as the nebulizing and turbo gas. The temperature of turbo gas was set at 300° C. and the interface heater was set at 60° C. Data acquisition utilized selected reaction monitoring (SRM). Ions representing the (M+2H)^2+ species for the compound of SEQ ID NO:9, and (M+2H)^2+ for BMS-501143 (IS) were selected in Q1 and were collisionally dissociated with high purity nitrogen at a pressure of 3.5×10^−3 torr to form specific product ions which were subsequently monitored by Q3.
# The standard curve concentrations, ranging from 1 to 1000 nM and from 4 to 5000 nM, were used for the in vivo samples obtained from low and high doses, respectively. The curves were fitted with a quadratic regression weighted by reciprocal […]. Standards were analyzed in duplicate. Quality control (QC) samples, prepared in blank matrix at the same concentrations as the standard were also analyzed in each analytical set. For the compound of SEQ ID NO:9, the calculated concentrations of more than 80% of the QCs were within 20% of nominal concentration, indicating acceptable assay performance.
# The compound of SEQ ID NO:9 plasma concentration vs. time data were analyzed by noncompartmental methods using the […]™ software program. The Cmax and Tmax values were recorded directly from experimental observations. The AUC0-n and AUCtot values were calculated using a combination of linear and log trapezoidal summations. […]
# [3] = Table I, vehicle propylene glycol/pH 7.4 phosphate buffer (1:1)
# [4] = Table II, vehicle propylene glycol/pH 7.4 phosphate buffer (1:1)
# [5] = Table I, vehicle 0.2 M Tris buffer (pH 8.0)
# [6] = male, beagle, plasma, 67 ug/kg, dog, intravenous 67 μg/kg, Tables 6B/6C, vehicle not given
# [7] = male, beagle, plasma, sc, 67 ug/kg, dog, subcutaneous 67 μg/kg, Tables 6B/6C (Table I footnote: 0.2 M Tris buffer pH 8.0)
Compound,Exposure/dose during ipGTT in ob/ob mice [1] [nM*h/nmol/kg],Potency in ob/ob mice ED50 (C57BL/6J-ob/ob mice) [nmol/kg],"Exposure in dogs (sc@67 μg/kg) [2, 3] [µM·h]","Exposure in dogs (sc@67 μg/kg) [2, 4] [µM·h]",effect on postprandial plasma glucose (C57BL/6J-ob/ob mice),"Exposure in dogs (sc@67 μg/kg) [2, 5] [µM·h]",also measured
"CCc1cc(OC)ccc1-c1ccc(C[C@H](NC(=O)[C@H](CC(=O)O)NC(=O)[C@H](CO)NC(=O)[C@@H](NC(=O)[C@@](C)(Cc2ccccc2F)NC(=O)[C@@H](NC(=O)CNC(=O)[C@H](CCC(=O)O)NC(=O)C(C)(C)NC(=O)[C@@H](N)Cc2c[nH]cn2)C(C)O)C(C)O)C(=O)N[C@@H](Cc2ccc(-c3ccccc3C)cc2)C(N)=O)cc1 (stereo partly shown) [Compound I, reference compound] (H-H[Aib]EG[Thr(3ξ)][d(αMePhe(2-F))][Thr(3ξ)]SD[Bip(2'-Et-4'-OMe)][Bip(2'-Me)]-NH2)",22,50,0.089,0.089,,,"Potency in ob/ob mice: % AUC Reduction in Plasma Glucose in an IP Glucose Tolerance Test after SC Injection of Compound (C57BL/6J-ob/ob mice; 10 nmol/kg sc, relative to vehicle-treated group): −15% (p = 0.247, NS)"
CCc1cc(OC)ccc1-c1ccc(C[C@H](NC(=O)[C@H](CC(=O)O)NC(=O)[C@H](CO)NC(=O)[C@@H](NC(=O)C(C)(Cc2ccccc2F)NC(=O)[C@@H](NC(=O)CNC(=O)[C@H](CCC(=O)O)NC(=O)C2(C)CCCN2C(=O)[C@@H](N)Cc2c[nH]cn2)[C@@H](C)O)[C@@H](C)O)C(=O)N[C@@H](Cc2ccc(-c3ccccc3C)nc2)C(N)=O)cc1 (stereo partly shown) [SEQ ID NO: 118] (H-H[ξαMeP]EGT[ξαMePhe(2-F)]TSD[Bip(2'-Et-4'-OMe)][Ala(6-(2-MePh)pyridin-3-yl)]-NH2),4.4,2.5,4.02,,statistically significant decrease,,"plasma glucose AUC decrease (C57BL/6J-ob/ob mice; 30 nmol/kg sc, ipGTT ob/ob mice): 81%"
CCc1cc(OC)ccc1-c1ccc(C[C@H](NC(=O)[C@H](CC(=O)O)NC(=O)[C@H](CO)NC(=O)[C@@H](NC(=O)[C@](C)(Cc2ccccc2F)NC(=O)[C@@H](NC(=O)CNC(=O)[C@H](CCC(=O)O)NC(=O)[C@@H](C)NC(=O)[C@@H](N)Cc2c[nH]cn2)[C@@H](C)O)[C@@H](C)O)C(=O)N[C@@H](Cc2ccc(-c3ccccc3C)nc2)C(N)=O)cc1 [SEQ ID NO: 149] (H-H[dA]EGT[αMePhe(2-F)]TSD[Bip(2'-Et-4'-OMe)][Ala(6-(2-MePh)pyridin-3-yl)]-NH2),,,,0.94,,,
CCc1cc(OC)ccc1-c1ccc(C[C@H](NC(=O)[C@H](CC(=O)O)NC(=O)[C@H](Cc2c[nH]cn2)NC(=O)[C@@H](NC(=O)C(C)(Cc2ccccc2F)NC(=O)[C@@H](NC(=O)CNC(=O)[C@H](CCC(=O)O)NC(=O)C2(C)CCCN2C(=O)[C@@H](O)Cc2c[nH]cn2)[C@@H](C)O)[C@@H](C)O)C(=O)N[C@@H](Cc2ccc(-c3ccccc3C)nc2)C(N)=O)cc1 (stereo partly shown) [SEQ ID NO: 151] ({Lactoyl(3-(imidazol-4-yl))}-[ξαMeP]EGT[ξαMePhe(2-F)]THD[Bip(2'-Et-4'-OMe)][Ala(6-(2-MePh)pyridin-3-yl)]-NH2),16,,,,statistically significant decrease,1.566,"AUC [2, 6]: 1.52 ± 0.424 µM·h; MRT [2, 6]: 4.4 ± 0.1 h; clearance ([2]; male, beagle, plasma, 67 ug/kg, dog, intravenous 67 μg/kg, Tables 6B/6C, vehicle not given, read-out: CLp): 0.49 ± 0.16 mL/min/kg; Vd ([2]; male, beagle, plasma, 67 ug/kg, dog, intravenous 67 μg/kg, Tables 6B/6C, vehicle not given, read-out: Vss): 0.13 ± 0.05 L/kg; half-life [2, 6]: 4 ± 0.2 h; AUC [2, 7]: 1.57 ± 0.235 µM·h; MRT [2, 7]: 5.8 ± 1 h; Tmax [2, 7]: 1.8 ± 0.5 h; bioavailability [2, 7]: 110 ± 41%; Cmax ([2]; male, beagle, plasma, sc, 67 ug/kg, dog, subcutaneous 67 μg/kg, Tables 6B/6C (Table I footnote: 0.2 M Tris buffer pH 8.0), read-out: Cmax): 252 ± 15 nM; half-life [2, 7]: 4.4 ± 1.4 h"
CCc1cc(O)ccc1-c1ccc(C[C@H](NC(=O)[C@H](CC(=O)O)NC(=O)[C@H](CO)NC(=O)[C@@H](NC(=O)C(C)(Cc2ccccc2F)NC(=O)[C@@H](NC(=O)CNC(=O)[C@H](CCC(=O)O)NC(=O)C2(C)CCCN2C(=O)[C@H](Cc2c[nH]cn2)NC(=O)OC)[C@@H](C)O)[C@@H](C)O)C(=O)N[C@@H](Cc2ccc(-c3ccccc3C)nc2)C(N)=O)cc1 (stereo partly shown) [SEQ ID NO: 158] (Moc-H[ξαMeP]EGT[ξαMePhe(2-F)]TSD[Phe(4-(2-Et-4-HO-Ph))][Ala(6-(2-MePh)pyridin-3-yl)]-NH2),11,,,,statistically significant decrease,1.467,

# From patent US20100022457A1 (Bristol-Myers Squibb Company, priority 2006, published 2010)
